± gives the expanded uncertainty stated by the source. One block for each compound: values may come before it.
Key:
[1] = 298.15 K; 101.33 kPa; Liquid; Vibrating tube method
[2] = xn = mol fraction of the nth substance listed; conditions: 298.15 K, 101 kPa, Liquid, Vibrating tube method

Compound: COC(C)(C)C [2-methoxy-2-methylpropane]
- mass density [1]: 735.21 ± 0.62 kg/m3

Compound: COC(C)(C)C [2-methoxy-2-methylpropane] + CC(C)CC(C)(C)C
- mass density ([2]; x2 = 0.2997): 716 ± 0.17 kg/m3
- mass density ([2]; x2 = 0.3004): 715.84 ± 0.17 kg/m3
- mass density ([2]; x2 = 0.3012): 715.86 ± 0.17 kg/m3
- mass density ([2]; x2 = 0.5018): 705.83 ± 0.18 kg/m3
- mass density ([2]; x2 = 0.5019): 705.9 ± 0.18 kg/m3
- mass density ([2]; x2 = 0.5037): 705.72 ± 0.18 kg/m3
- mass density ([2]; x2 = 0.6707): 698.67 ± 0.18 kg/m3
- mass density ([2]; x2 = 0.7056): 697.4 ± 0.18 kg/m3
- mass density ([2]; x2 = 0.7134): 697.17 ± 0.18 kg/m3

Compound: CC(C)CC(C)(C)C [2,2,4-trimethylpentane]
- mass density [1]: 687.62 ± 0.62 kg/m3

Compound: CC(C)OC(C)C [diisopropyl ether] + CC(C)CC(C)(C)C
- mass density ([2]; x2 = 0.3056): 706.86 ± 0.22 kg/m3
- mass density ([2]; x2 = 0.3066): 706.7 ± 0.22 kg/m3
- mass density ([2]; x2 = 0.5009): 700.59 ± 0.21 kg/m3
- mass density ([2]; x2 = 0.5027): 700.42 ± 0.21 kg/m3
- mass density ([2]; x2 = 0.5046): 700.41 ± 0.21 kg/m3
- mass density ([2]; x2 = 0.7004): 694.83 ± 0.19 kg/m3
- mass density ([2]; x2 = 0.7009): 694.86 ± 0.19 kg/m3
- mass density ([2]; x2 = 0.7025): 694.86 ± 0.19 kg/m3

Compound: CC(C)OC(C)C [diisopropyl ether]
- mass density [1]: 718.24 ± 0.64 kg/m3

Further lines, results first:

- mass density [1]: 799.7 ± 0.62 kg/m3
Compound: CCCO [propan-1-ol]

- mass density [1]: 785.31 ± 0.62 kg/m3
Compound: CCO [ethanol]

- mass density [1]: 786.56 ± 0.61 kg/m3
Compound: CO [methanol]

Reference: the NIST ThermoML archive (doi:10.1021/je2011314)
